The source of these data is PubChem BioAssay (NCI).

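Grown in 96-well plates, cells were treated for 48 hours with each compound at five concentrations. Insufficient inhibition: endpoint recorded as highest concentration tested. TGI marks complete inhibition of growth.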

Some test systems named below: SF-539 CNS; UACC-62 melanoma; LOX IMVI melanoma; M14 melanoma; HCC-2998 colon; PC-3 prostate; T-47D breast; A498 renal; U251 CNS; MCF7 breast; SNB-75 CNS; SN12C renal; HT29 colon; SK-MEL-28 melanoma; HL-60(TB) leukemia; NCI-H23 lung; SK-MEL-2 melanoma; NCI-H226 lung; MDA-MB-231 breast.
Assay in all cases: NCI-60 cell line screen, 48 h

For `CSc1nc(SC)c2ncn(C3CC(Oc4ccc(C)cc4)C(COc4ccc(C)cc4)O3)c2n1` (stereo unspecified), the TGI with SF-539 CNS, in the assay with UACC-62 melanoma, in the assay on LOX IMVI melanoma, in the assay with M14 melanoma, in the assay on HCC-2998 colon and in the assay with PC-3 prostate was above 100 µM in each case. Also, the TGI in the assay on T-47D breast, in the assay with A498 renal, in the assay on U251 CNS, with MCF7 breast, with SNB-75 CNS and with SN12C renal was above 100 µM in each case. Also, the TGI in the assay with HT29 colon, in the assay on SK-MEL-28 melanoma, in the assay on HL-60(TB) leukemia, with NCI-H23 lung, in the assay on SK-MEL-2 melanoma and in the assay on NCI-H226 lung was above 100 µM each time. For the same compound, the TGI in the assay with MDA-MB-231 breast was above 100 µM.
Consider `CCOC(=O)C1=CC(C)(C(=O)OCC)Nc2c(nc(OC)[nH]c2=O)N1` (stereo unspecified), for which the TGI in the assay on SF-539 CNS, in the assay on LOX IMVI melanoma, in the assay on M14 melanoma, with HCC-2998 colon, in the assay on PC-3 prostate and in the assay with T-47D breast was above 10 µM each time. The TGI with A498 renal, in the assay on U251 CNS, in the assay with MCF7 breast, in the assay with SNB-75 CNS, in the assay with SN12C renal and in the assay with HT29 colon was above 10 µM each time. Also, the TGI with SK-MEL-28 melanoma, in the assay with NCI-H23 lung, in the assay on SK-MEL-2 melanoma, with NCI-H226 lung and in the assay with MDA-MB-231 breast was above 10 µM throughout.
In the case of `COC(=O)C1C2CC3C1C3C2C(=O)OC` (stereo unspecified), the TGI in the assay on SF-539 CNS, in the assay on UACC-62 melanoma, in the assay with LOX IMVI melanoma, with M14 melanoma, in the assay on HCC-2998 colon and in the assay with PC-3 prostate was above 100 µM in each case. Moreover, the TGI with T-47D breast, in the assay on A498 renal, in the assay with U251 CNS, in the assay on MCF7 breast, in the assay on SNB-75 CNS and in the assay on SN12C renal was above 100 µM each time. In addition, the TGI with HT29 colon, in the assay with SK-MEL-28 melanoma, in the assay on NCI-H23 lung, in the assay on SK-MEL-2 melanoma, with NCI-H226 lung and with MDA-MB-231 breast was above 100 µM each time.
For the compound `CCCCCCCCCCCCCCCCOCC(CCl)OP(=O)(O)OP(=O)(O)OCC1OC(n2ccc(N)nc2=O)C(O)C1O` (stereo unspecified), the TGI with SF-539 CNS, in the assay with UACC-62 melanoma, in the assay with LOX IMVI melanoma, in the assay on M14 melanoma, in the assay on HCC-2998 colon and in the assay with PC-3 prostate was above 100 µM each time. Besides, the TGI is above 100 µM in the assay with T-47D breast; above 100 µM in the assay with A498 renal; above 100 µM in the assay on U251 CNS; above 100 µM in the assay on MCF7 breast; 22 µM with SNB-75 CNS; above 100 µM with SN12C renal. Moreover, the TGI in the assay on HT29 colon, in the assay with SK-MEL-28 melanoma, with HL-60(TB) leukemia, in the assay with NCI-H23 lung, in the assay on SK-MEL-2 melanoma and with NCI-H226 lung was above 100 µM throughout. For the same compound, the TGI in the assay on MDA-MB-231 breast is above 100 µM.
`COC(=O)c1c2c(cc3c1CC1(Cc4cc5c(cc4C1=O)CCC5)C3)CCC2` (stereo unspecified): the TGI with SF-539 CNS, in the assay on UACC-62 melanoma, in the assay with LOX IMVI melanoma, in the assay with M14 melanoma, in the assay on HCC-2998 colon and with PC-3 prostate was above 100 µM throughout. The TGI in the assay on T-47D breast, in the assay on A498 renal, in the assay on U251 CNS, with MCF7 breast, with SNB-75 CNS and with SN12C renal was above 100 µM each time. For the same compound, the TGI in the assay with HT29 colon, in the assay with SK-MEL-28 melanoma, with HL-60(TB) leukemia, in the assay with NCI-H23 lung, in the assay with SK-MEL-2 melanoma and in the assay with NCI-H226 lung was above 100 µM each time. The TGI with MDA-MB-231 breast is above 100 µM.
For the compound `CC(=O)N1CC(=O)N2C(=O)/C(=C/c3ccc(Cl)cc3)N=C12`, the TGI in the assay with SF-539 CNS, in the assay with UACC-62 melanoma, with LOX IMVI melanoma, in the assay on M14 melanoma, with HCC-2998 colon and in the assay with PC-3 prostate was above 100 µM throughout. Besides, the TGI with T-47D breast, in the assay on A498 renal, in the assay with U251 CNS, with MCF7 breast, with SNB-75 CNS and in the assay on SN12C renal was above 100 µM in each case. Besides, the TGI in the assay on HT29 colon was above 100 µM; in the assay with SK-MEL-28 melanoma, above 100 µM; in the assay with HL-60(TB) leukemia, 56.4 µM; in the assay on NCI-H23 lung, above 100 µM; in the assay on SK-MEL-2 melanoma it was above 100 µM; in the assay on NCI-H226 lung, above 100 µM. Further, the TGI with MDA-MB-231 breast is above 100 µM.
